In US20240301156A1, “FOAMABLE RESIN COMPOSITION, FOAM BODY, METHOD FOR PRODUCING FOAM BODY, AND FOAMABLE CURING AGENT” (MITSUBISHI GAS CHEMICAL COMPANY, INC., priority 2021, published 2024):

Key:
[1] = Amine value of amine compound (JIS K7237-1995 titration); format: physicochemical; conditions: 0.1 N perchloric acid-acetic acid titration
Description: The amine value was measured by the following measurement method according to JIS K7237-1995. • (1) 0.1 g of the amine compound was dissolved in 20 mL of acetic acid. • (2) The amine value was calculated by titrating the solution prepared in (1) above with 0.1 N perchloric acid-acetic acid solution using an automatic potentiometric titrator (AT-610 made by Kyoto Electronics Manufacturing Co., Ltd.) (Acid Dissociation Constant (pKa) of Amine Compound)

[2] = Absorption of carbon dioxide into amine compound: percentage increase of mass; format: physicochemical; conditions: amine left to stand in air at 23° C. and 50% RH for a week
Description: An amine compound, MXDA (40 mmol), was put in a container and left to stand in an air environment at 23° C. and 50% RH for a week. By doing so MXDA and carbon dioxide in the air were reacted to give a carbonate of MXDA. At that stage, to suppress uneven reaction, the container in which the amine compound was placed was shaken as necessary so as not to leave unreacted MXDA.
Next, increase of the mass of MXDA was measured and the percentage increase of the mass of the amine compound was calculated by the following equation.
Percentage increase of mass of amine compound [% by mass]=100×amount of increase of mass of amine compound (g)/(initial mass of amine compound (g)+amount of increase of mass of amine compound (g))

[3] = Maximum endothermic temperature of amine compound (DSC); format: physicochemical; conditions: DSC 23 to 350° C., 10° C./minute, nitrogen; evaporation of the amine compound
Description: The amine compound (a1) is heated at a heating rate of 10° C./minute from 23° C. to 350° C. and the temperature at which the amount of heat absorbed due to evaporation of the amine compound (a1) reaches the maximum is measured, and the temperature is defined as the maximum endothermic temperature of the amine compound (a1).
The maximum endothermic temperature of the amine compound was measured by subjecting the amine compound to DSC as described below. First, differential scanning calorimetry of the amine compound was performed under conditions of a temperature range of 23 to 350° C., a heating rate of 10° C./minute and a nitrogen atmosphere using a differential thermogravimeter (product name DTG-60 made by Shimadzu Corporation). The temperature at which the amount of heat absorbed due to the evaporation of the amine compound was the maximum was calculated from the DSC curve obtained, and the temperature was determined as the maximum endothermic temperature of the amine compound.

[4] = Maximum carbon dioxide (CO2) release temperature of amine compound (DSC); format: physicochemical; conditions: amine left in air at 23° C., 50% RH for 24 hours; DSC 23 to 250° C., 10° C./minute, nitrogen
Description: The amine compound (a1) with carbon dioxide absorbed is heated at a heating rate of 10° C./minute from 23° C. to 250° C., and the temperature at which the amount of heat absorbed due to desorption of carbon dioxide reaches the maximum is measured, and the temperature is defined as the maximum carbon dioxide release temperature. In this regard the amine compound (a1) with carbon dioxide absorbed may be prepared by leaving 5 mmol of the amine compound (a1) to stand in air at 23° C. and 50% RH for 24 hours.
A carbon dioxide detector and a Petri dish were placed in an openable desiccator (inner dimension: 370 mm×260 mm×272 mm). Subsequently the amine compound (5 mmol) was added to the Petri dish in the desiccator and the door was immediately closed to leave the amine compound to stand in the desiccator in an air environment at 23° C. and 50% RH for 24 hours. The initial concentration of carbon dioxide was adjusted to about 400 ppm.
Then the amine compound was removed from the desiccator to give an amine compound with carbon dioxide absorbed. The maximum carbon dioxide release temperature of the amine compound with carbon dioxide absorbed was measured by subjecting the amine compound to DSC as described below. First, differential scanning calorimetry of the amine compound was performed under conditions of a temperature range of 23 to 250° C., a heating rate of 10° C./minute and a nitrogen atmosphere using a differential thermogravimeter (product name DTG-60 made by Shimadzu Corporation). The temperature at which the amount of heat absorbed due to the desorption of carbon dioxide was the maximum was calculated from the DSC curve obtained, and the temperature was determined as the maximum carbon dioxide release temperature of the amine compound.

[5] = Acid dissociation constant (pKa) of amine compound, acid-base titration; conditions: purified water
Description: (§1) The acid dissociation constant of the amine compound (a1) is measured by the following measurement method based on acid-base titration. • (1) 0.2 g of the amine compound (a1) is dissolved in 30 mL of purified water. • (2) The acid dissociation constant (pKa) is calculated by titrating the solution prepared in (1) above with 0.1 N perchloric acid-acetic acid solution using an automatic potentiometric titrator (e.g., AT-610 made by Kyoto Electronics Manufacturing Co., Ltd.).
(§2) The acid dissociation constant of the amine compound was measured by the following measurement method. • (1) 0.2 g of the amine compound was dissolved in 30 mL of purified water. • (2) The acid dissociation constant (pKa) was calculated by titrating the solution prepared in (1) above with 0.1 N perchloric acid-acetic acid solution using an automatic potentiometric titrator (AT-610 made by Kyoto Electronics Manufacturing Co., Ltd.).
(§3) The temperature in the measurement was 25±2° C.

Description for physchem: as §1, §2, §3

Row | Structure (SMILES) | Amine value [1] [mg KOH/g] | Percentage increase of mass [2] [% by mass] | Maximum endothermic temperature [3] [°C] | Maximum CO2 release temperature [4] [°C] | pKa [5] | pKa (physchem)
1 | NCC1CCCC(CN)C1 (centres unmarked) [1,3-BAC, 1,3-bis(aminomethyl)cyclohexane] | 789 | 25.9 | 160.9 | 125.7 | – | –
2 | NCCN1CCNCC1 [AEP, N-(2-aminoethyl)piperazine] | 1303 | 43.7 | 140.2 | 81.9 | 8.9 | –
3 | NC1CCC(CC2CCC(N)CC2)CC1 (centres unmarked) [PACM, 4,4′-methylenebis(cyclohexylamine)] | 533 | 12.2 | 218.5 | 53.0 | – | 10.3

More lines, main results first:

Row | Amine value [1] [mg KOH/g] | Percentage increase of mass [2] [% by mass] | Maximum endothermic temperature [3] [°C] | Maximum CO2 release temperature [4] [°C] | pKa [5] | Structure (SMILES) | pKa (physchem)
4 | 659 | 23.5 | 168.8 | 114.4 | 10.4 | CC1(C)CC(N)CC(C)(CN)C1 (centres unmarked) [IPDA, isophoronediamine] | –
5 | 824 | 24.1 | 183.5 | 135.5 | – | NCc1cccc(CN)c1 [MXDA, metaxylylenediamine] | –
